Source: ChEMBL document CHEMBL1133926, “Optimization of a screening lead for factor VIIa/TF” (Bioorg Med Chem Lett, 2001)
Active and inactive are the calls of the source. No cut-off for these calls is given here.

Experiments:
[1] = biological target: T1, Serine protease 1 (Homo sapiens, UniProt P07477); experiment: Relative binding affinity towards Trypsin
[2] = biological target: T2, Coagulation factor X (Homo sapiens, UniProt P00742); experiment: Binding affinity towards coagulation factor X with respect to compound 1
T2 sequence (P00742 41-179 limits assumed): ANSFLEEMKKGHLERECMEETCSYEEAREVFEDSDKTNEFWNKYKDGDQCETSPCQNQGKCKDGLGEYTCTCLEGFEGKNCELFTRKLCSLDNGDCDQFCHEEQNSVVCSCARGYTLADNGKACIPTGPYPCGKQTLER
T2 sequence (P00742 235-488 limits assumed): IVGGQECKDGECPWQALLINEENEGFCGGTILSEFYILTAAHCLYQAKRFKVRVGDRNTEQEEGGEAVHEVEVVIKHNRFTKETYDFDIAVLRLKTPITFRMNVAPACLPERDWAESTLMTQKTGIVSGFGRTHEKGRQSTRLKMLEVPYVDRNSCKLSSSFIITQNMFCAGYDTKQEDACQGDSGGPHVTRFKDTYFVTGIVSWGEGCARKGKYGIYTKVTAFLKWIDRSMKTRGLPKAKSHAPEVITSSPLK

[3] = biological target: T3, Urokinase-type plasminogen activator (Homo sapiens, UniProt P00749); experiment: Relative binding affinity for urokinase-type plasminogen activator
[4] = biological target: T4, Plasminogen (Homo sapiens, UniProt P00747); experiment: Relative affinity for Plasmin compared to compound 1
T4 sequence (P00747 97-580 limits assumed): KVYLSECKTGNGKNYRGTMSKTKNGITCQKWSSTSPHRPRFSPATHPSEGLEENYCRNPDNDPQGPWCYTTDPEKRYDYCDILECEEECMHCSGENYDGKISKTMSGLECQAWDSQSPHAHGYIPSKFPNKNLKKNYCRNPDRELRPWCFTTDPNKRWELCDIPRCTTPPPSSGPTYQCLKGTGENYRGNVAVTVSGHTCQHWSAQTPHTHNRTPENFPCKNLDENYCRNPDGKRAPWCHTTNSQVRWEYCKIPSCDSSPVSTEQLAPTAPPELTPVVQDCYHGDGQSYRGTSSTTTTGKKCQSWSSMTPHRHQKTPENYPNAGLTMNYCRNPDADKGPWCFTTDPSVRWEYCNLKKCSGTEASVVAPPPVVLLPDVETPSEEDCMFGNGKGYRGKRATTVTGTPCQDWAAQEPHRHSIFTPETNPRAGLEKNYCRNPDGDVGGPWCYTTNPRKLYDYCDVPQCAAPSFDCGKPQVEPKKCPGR
T4 sequence (P00747 581-810 limits assumed): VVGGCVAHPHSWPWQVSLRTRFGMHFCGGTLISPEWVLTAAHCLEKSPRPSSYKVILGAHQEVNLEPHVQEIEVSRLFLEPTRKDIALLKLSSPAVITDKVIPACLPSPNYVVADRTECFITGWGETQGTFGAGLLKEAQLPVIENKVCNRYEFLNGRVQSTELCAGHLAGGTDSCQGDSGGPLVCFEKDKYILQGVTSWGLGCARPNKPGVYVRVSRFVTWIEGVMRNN

[5] = species: Homo sapiens; experiment: (§1) In vitro anticoagulant activity in human plasma to double the prothrombin time (2x PT); assay type: functional
[6] = biological target: T5, Prothrombin (Homo sapiens, UniProt P00734); experiment: Binding affinity towards Thrombin with respect to compound 1
[7] = biological target: T2, Coagulation factor X; experiment: Binding affinity for Coagulation factor X with respect to compound 1
[8] = biological target: T5, Prothrombin; experiment: Binding affinity for Coagulation factor II relative to compound 1
[9] = biological target: Coagulation factor VII/tissue factor (Homo sapiens, UniProt P08709); experiment: Binding affinity for factor VIIa/TF; assay type: protein-complex assay
Coagulation factor VII/tissue factor, sequence (P13726 33-295 partner limits assumed, one chain of several): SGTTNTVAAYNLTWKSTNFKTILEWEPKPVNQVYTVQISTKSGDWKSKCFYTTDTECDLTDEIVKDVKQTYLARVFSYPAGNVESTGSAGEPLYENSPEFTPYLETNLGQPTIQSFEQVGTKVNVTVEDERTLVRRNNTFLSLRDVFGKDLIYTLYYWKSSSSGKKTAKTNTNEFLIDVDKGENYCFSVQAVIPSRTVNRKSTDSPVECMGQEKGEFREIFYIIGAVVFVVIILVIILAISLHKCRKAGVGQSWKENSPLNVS

[10] = biological target: T1, Serine protease 1; experiment: Binding affinity towards Trypsin
[11] = biological target: T5, Prothrombin; experiment: Binding affinity towards Coagulation factor II
[12] = biological target: T2, Coagulation factor X; experiment: Binding affinity towards Coagulation factor X
[13] = biological target: T3, Urokinase-type plasminogen activator; experiment: Binding affinity towards urokinase-type plasminogen activator (microPa)
[14] = biological target: T4, Plasminogen; experiment: Binding affinity towards Plasmin
[15] = species: Homo sapiens; experiment: In vitro anticoagulant activity in human plasma to double the prothrombin time (2xP T); Not active; assay type: functional, cell-free
[16] = as §1; assay type: functional
[17] = biological target: T6, Coagulation factor VII (Homo sapiens, UniProt P08709); experiment: Binding affinity towards factor VIIa/TF was determined
T6 sequence (P08709 whole entry): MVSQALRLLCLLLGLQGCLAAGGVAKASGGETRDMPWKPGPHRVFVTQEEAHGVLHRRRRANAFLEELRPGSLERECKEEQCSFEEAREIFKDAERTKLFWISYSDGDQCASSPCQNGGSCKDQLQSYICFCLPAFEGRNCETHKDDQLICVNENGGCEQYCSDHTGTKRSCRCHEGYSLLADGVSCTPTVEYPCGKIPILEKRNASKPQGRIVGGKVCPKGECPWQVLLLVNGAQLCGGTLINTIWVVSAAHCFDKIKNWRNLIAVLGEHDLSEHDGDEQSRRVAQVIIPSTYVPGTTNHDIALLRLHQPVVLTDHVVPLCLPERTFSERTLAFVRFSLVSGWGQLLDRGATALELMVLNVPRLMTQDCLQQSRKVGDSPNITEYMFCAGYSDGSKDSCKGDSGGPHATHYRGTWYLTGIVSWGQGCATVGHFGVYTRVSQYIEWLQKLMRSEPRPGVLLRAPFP

T1 sequence (P07477 whole entry): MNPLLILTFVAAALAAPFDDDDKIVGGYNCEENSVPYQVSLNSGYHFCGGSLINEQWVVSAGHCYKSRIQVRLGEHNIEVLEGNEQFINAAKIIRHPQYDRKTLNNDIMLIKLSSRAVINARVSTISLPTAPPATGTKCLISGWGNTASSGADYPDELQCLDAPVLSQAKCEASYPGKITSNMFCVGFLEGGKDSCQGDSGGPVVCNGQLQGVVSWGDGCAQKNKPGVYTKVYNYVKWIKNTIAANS

| Selectivity [1] | Selectivity [3] | Selectivity [4] | Selectivity [7] | Selectivity [8] | Ki [9] [nM] | SMILES | also measured |
| --- | --- | --- | --- | --- | --- | --- | --- |
|  |  |  |  |  | 480 | N=C(N)c1ccc2[nH]c(-c3cc(CC(=O)O)cc(-c4cccc(-c5nnn[nH]5)c4)c3O)cc2c1 |  |
| 70 | 44 | 75 | 42 | 420 | 5 | N=C(N)c1ccc2[nH]c(-c3cc(C(=O)O)cc(-c4cccc([N+](=O)[O-])c4)c3O)cc2c1 | 2x PT [16]: 4.1 µM |
| inactive | 4 | 4 | 1 | 87 | 950 | N=C(N)c1ccc2[nH]c(-c3cc(CC(=O)O)cc(-c4cccc(OP(=O)(O)O)c4)c3O)cc2c1 |  |
| 37 | 6 | 6 | 2 | 59 | 27 | N=C(N)c1ccc2[nH]c(-c3cc(CCC(=O)O)cc(-c4cccc([N+](=O)[O-])c4)c3O)cc2c1 | 2x PT [16]: 2.2 µM |
| 83 | 6 | 27 | 26 | 550 | 12 | N=C(N)c1ccc2[nH]c(-c3cc(CC(=O)O)cc(-c4cccc(N)c4)c3O)cc2c1 |  |
| 5 | 1 | 3 |  |  |  | N=C(N)c1ccc2[nH]c(-c3cc(CC(N)C(=O)O)cc(-c4cccc([N+](=O)[O-])c4)c3O)cc2c1 (stereo not given) | Selectivity [2]: 0.5; Ki [17]: 50 nM; 2x PT [5]: 0.73 µM; Selectivity [6]: 40 |

More lines, now with the values behind:

| SMILES | Selectivity [1] | Selectivity [3] | Selectivity [4] | Selectivity [7] | Selectivity [8] | Ki [9] [nM] | also measured |
| --- | --- | --- | --- | --- | --- | --- | --- |
| N=C(N)c1ccc2[nH]c(-c3cc(-c4nn[nH]n4)cc(-c4cccc([N+](=O)[O-])c4)c3O)cc2c1 | 40 | 15 | 20 |  |  |  | Selectivity [2]: 0.5; 2x PT [5]: 16 µM; Selectivity [6]: 140 |
| N=C(N)c1ccc2[nH]c(-c3cc(CC(=O)O)cc(-c4cccc(Cl)c4)c3O)cc2c1 | 3 | 4 | 17 | 5 | 112 | 33 |  |
| N=C(N)c1cccc(-c2cc(CC(=O)O)cc(-c3cc4cc(C(=N)N)ccc4[nH]3)c2O)c1 | 2 | 0.6 | 3 | 4 | 140 | 430 |  |
| N=C(N)c1ccc2nc(-c3cc(Cl)cc(-c4cccc(N)c4)c3O)[nH]c2c1 |  |  |  |  |  | 78 | Ki [10]: 4700 nM; Ki [11]: 4.2 nM; Ki [12]: 0.5 nM; Ki [13]: 0.46 nM; Ki [14]: 3200 nM |
| N=C(N)c1ccc2[nH]c(-c3cc(CCOP(=O)(O)O)cc(-c4cccc([N+](=O)[O-])c4)c3O)cc2c1 | 63 | 21 | 33 | 5 | 870 | 3 | 2x PT [15]: inactive |
| N=C(N)c1ccc2[nH]c(-c3cc(CC(=O)O)cc(-c4cccc(C(=O)O)c4)c3O)cc2c1 | 1 | 6 | 5 | 0.5 | 375 | 320 |  |
| N=C(N)c1ccc2[nH]c(-c3cc(CC(=O)O)cc(-c4cccc(-c5nn[nH]n5)c4)c3O)cc2c1 | 3 | 2 | 2 | 0.5 | 100 |  |  |
| N=C(N)c1ccc2[nH]c(-c3cc(CC(=O)O)cc(-c4cccc([N+](=O)[O-])c4)c3O)cc2c1 | 160 | 64 | 90 | 20 | 960 | 3 | 2x PT [16]: 1.7 µM |
| N=C(N)c1ccc2[nH]c(-c3cc(-c4nnn[nH]4)cc(-c4cccc([N+](=O)[O-])c4)c3O)cc2c1 |  |  |  |  |  |  | Ki [17]: 50 nM |
| N=C(N)c1ccc2[nH]c(-c3cc(CC(=O)O)cc(-c4ccccc4)c3O)cc2c1 | 1 | 1 | 6 | 4 | 49 | 41 |  |
